Where two headings read alike, the source gives them in different places.
Key:
[1] = test system: Human hepatoma cells Hep3b; assay: Cell proliferation inhibition, Cell Titer-Glo; assay type: cell-based; conditions: 72 h
Experimental: 2. Determination of cell proliferation activity of compounds:
Cell Titer-Glo ® detection reagent from Promega was used to establish the suspension cell proliferation inhibition screening method. Human hepatoma cells Hep3b (Xiehe Cell Research Center) were cultured in 25 cm^2 or 75 cm^2 plastic tissue culture flasks (Corning®) filled with MEM (Gibco®) medium supplemented with 10% fetal bovine serum (Hyclone®) under 37° C., 95% air and 5% CO2, and subcultured 2-3 times a week.
(§1) Hep3b cells were seeded in a 96-well cell culture plate (Corning®) at a density of 3×10^3 cells/well, […], and cultured under 37° C., 95% air, and 5% CO2. After 24 h the test compound was added: 10 mM compounds (dissolved in DMSO) were subjected to 3-fold gradient dilution in DMSO , […] of diluent from each concentration was added to […] of serum-free medium, and finally […] of compound diluted in the medium was added to the plate seeded with cells. The final concentration of DMSO in the cell culture medium was 0.1% and the final concentration of the test compound was 0.3 nM-[…]. The above cells were incubated for 3 days under 37° C.
After 3 days, the cell viability assay was performed by the Cell Titer-Glo (Promega) kit, and finally, the inhibitory concentration 50% of the compound on cell proliferation, i.e. the IC 50 value, was calculated by the GraphPad Prism 5.0 program.
as §1, with “DMSO,” for “DMSO ,”, “finally,” for “finally”, “of” for “of the”
After 3 days, the cell viability assay was performed by the Cell Titer-Glo (Promega) kit, and finally the inhibitory concentration 50% of the compound on cell proliferation, i.e. the IC 50 value, was calculated by the GraphPad Prism 5.0 program.

FGFR-4 kinase = FGFR-4 kinase (Homo sapiens, UniProt P22455); assay: FGFR-4 kinase activity, homogeneous time-resolved fluorescence (HTRF) method; assay type: biochemical; conditions: ATP 25 μM, FGFR-4 kinase 1 nM, read-out: FGFR4 IC50
Chain of FGFR-4 kinase (P22455 22-802): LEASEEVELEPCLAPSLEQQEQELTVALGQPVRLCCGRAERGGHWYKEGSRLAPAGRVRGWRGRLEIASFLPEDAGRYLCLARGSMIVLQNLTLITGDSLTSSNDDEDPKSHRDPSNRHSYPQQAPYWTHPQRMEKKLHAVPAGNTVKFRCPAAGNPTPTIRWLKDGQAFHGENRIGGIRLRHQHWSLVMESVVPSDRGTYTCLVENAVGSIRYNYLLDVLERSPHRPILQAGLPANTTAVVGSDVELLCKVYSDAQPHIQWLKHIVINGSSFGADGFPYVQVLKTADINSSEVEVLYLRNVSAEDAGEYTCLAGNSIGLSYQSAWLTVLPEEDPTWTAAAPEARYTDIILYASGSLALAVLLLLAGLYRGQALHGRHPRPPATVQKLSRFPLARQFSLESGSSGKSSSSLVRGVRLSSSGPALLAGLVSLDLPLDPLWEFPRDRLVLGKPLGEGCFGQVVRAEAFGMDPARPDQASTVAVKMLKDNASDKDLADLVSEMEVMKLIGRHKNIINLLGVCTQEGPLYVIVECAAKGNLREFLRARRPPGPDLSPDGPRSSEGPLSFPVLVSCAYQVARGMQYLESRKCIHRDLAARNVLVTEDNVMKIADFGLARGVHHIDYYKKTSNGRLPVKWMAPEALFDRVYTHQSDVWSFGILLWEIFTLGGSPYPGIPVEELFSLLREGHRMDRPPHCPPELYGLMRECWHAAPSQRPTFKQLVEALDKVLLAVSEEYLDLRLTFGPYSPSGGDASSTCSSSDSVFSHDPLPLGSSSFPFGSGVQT
Experimental: 1. In vitro determination of the protein activity of compounds: The FGFR-4 kinase activity detection platform was established by the homogeneous time-resolved fluorescence (HTRF) method, and the activity of the compound was determined. 1000 μM compounds were subjected to 3-fold gradient dilution in 100% DMSO 11 times (12 concentrations in total), 4 μL diluent from each concentration was added to 96 μL of reaction buffer (50 mM HEPES, pH 7.4, 5 mM MnCl2, 0.1 mM NaVO3, 0.001% Tween-20, 0.01% BAS, 1 mM DTT) and mixed well, as a 4* compound (final concentration of 0.017 nM-1000 nM) for later use. 2 * FGFR-4 kinase (final concentration of 1 nM) was formulated using reaction buffer and 4*substrate (ATP+TK peptide) (TK peptide, HTRF® KinEASETM-TK, purchased from Cisbio, TK peptide, final concentration of 1 μM, ATP final concentration of 25 μ M) was formulated using reaction buffer. 2.5 μL of 4*compound and then 5 μL of 2 * FGFR-4 kinase were added to a 384-well plate (OptiPlate-384, purchased from PerkinElmer), the mixture was mixed by centrifugation, and 2.5 μL of 4 * substrate mixture was added to start the reaction (total reaction volume of 10 µL). The 384-well plate was placed in an incubator 23° C. and stirred for 60 min before the reaction was stopped by the addition of 5 μL of Eu^3+cryptate-labeled anti-phosphotyrosine antibody (TRF® KinEASE™-TK, purchased from Cisbio) and 5 μL of Streptavidin-XL-665 (HTRF® KinEASE™-TK, purchased from Cisbio). After incubation in the incubator for 1 h, fluorescence values (excitation at 320 nm, detecting emitted light at 665 nm and 620 nm, and a ratio of the two as enzyme activity) were read on Envision (purchased from PerkinElmer). The enzyme activity of each compound was measured at 12 concentrations, and the ICso value of the compound was calculated using GraphPad Prism 5.0 software.
The FGFR-4 kinase activity detection platform was established by homogeneous time-resolved fluorescence (HTRF) method, and the activity of compound was determined. 1000 μM compounds were subjected to 3-fold gradient dilution in 100% DMSO 11 times (12 concentrations in total), 4 μL of diluent from each concentration was added to 96 μL of reaction buffer (50 mM HEPES, pH 7.4, 5 mM MnCl2, 0.1 mM NaVO3, 0.001% Tween-20, 0.01% BAS, 1 mM DTT) and mixed well, as a 4* compound (final concentration of 0.017 nM-1000 nM) for later use. 2 * FGFR-4 kinase (final concentration of 1 nM) was formulated using reaction buffer and 4*substrate (ATP+TK peptide)(TK peptide, HTRF® KinEASE™-TK, purchased from Cisbio, TK peptide, final concentration of 1 μM, ATP final concentration of 25 μM) was formulated using reaction buffer. 2.5 μL of 4 * compound and then 5 μL of 2 * FGFR-4 kinase were added to a 384-well plate (OptiPlate-384, purchased from PerkinElmer), the mixture was mixed by centrifugation, and 2.5 μL of 4 * substrate mixture was added to start the reaction (total reaction volume of 10 μL). The 384-well plate was placed in an incubator 23° C. and stirred for 60 min before the reaction was stopped by the addition of 5 μL of Eu^3+cryptate-labled anti-phosphotyrosine antibody (TRF® KinEASE™-TK, purchased from Cisbio) and 5 μL of Streptavidin-XL-665 (HTRF® KinEASE™-TK, purchased from Cisbio). After incubation in the incubator for 1 h, fluorescence values (excitation at 320 nm, detecting emitted light at 665 nm and 620 nm, and a ratio of the two as enzyme activity) were read on Envision (purchased from PerkinElmer). The enzyme activity of each compopund was measured at 12 concentrations, and the ICso value of the compound was calculated using GraphPad prism 5.0 software.

[2] = Hep3B, Table 1, 3 days incubation
[3] = Hep3B, Table 2, 3 days incubation

Row | IC50 [1, 2] | IC50 (FGFR-4 kinase; Table 1) | IC50 (FGFR-4 kinase; Table 2) | IC50 [1, 3] | SMILES | IC50 ([1]; Table 2, 3 days incubation)
1 | 34.4 nM | 2.17 nM | – | – | CC#CC(=O)Nc1cc(-c2cc3c(cn2)cc(-c2c(Cl)c(OC)cc(OC)c2Cl)c2nccn23)c(OC)cc1N1CCOCC1 [Example 29, N-(5-(4-(2,6-dichloro-3,5-dimethoxyphenyl)imidazo[1,2-a][1,6]naphthyridin-8-yl)-4-methoxy-2-morpholinophenyl)but-2-ynamide] | –
2 | 46.3 nM | 0.947 nM | – | – | CC#CC(=O)Nc1cc(-c2cc3c(cn2)cc(-c2c(Cl)c(OC)cc(OC)c2Cl)c2nccn23)c(OC)cc1N1CCS(=O)(=O)CC1 [Example 30, N-(5-(4-(2,6-dichloro-3,5-dimethoxyphenyl)imidazo[1,2-a][1,6]naphthyridin-8-yl)-2-(1,1-dioxidothiomorpholino)-4-methoxyphenyl)but-2-ynamide] | –
3 | 81.3 nM | 3.63 nM | – | – | CC#CC(=O)Nc1cc(-c2cc3c(cn2)cc(-c2c(Cl)c(OC)cc(OC)c2Cl)c2nccn23)c(OC)cc1N1CCC(N2CCOCC2)CC1 [Example 31, N-(5-(4-(2,6-dichloro-3,5-dimethoxyphenyl)imidazo[1,2-a][1,6]naphthyridin-8-yl)-4-methoxy-2-(4-morpholinopiperidin-1-yl)phenyl)but-2-ynamide] | –
4 | 76.8 nM | 6.1 nM | – | – | CC#CC(=O)Nc1cc(-c2cc3c(cn2)cc(-c2c(Cl)c(OC)cc(OC)c2Cl)c2nccn23)c(OC)cc1N1CCN(C)C2(CC2)C1 [Example 32, N-(5-(4-(2,6-dichloro-3,5-dimethoxyphenyl)imidazo[1,2-a][1,6]naphthyridin-8-yl)-4-methoxy-2-(4-methyl-4,7-diazaspiro[2.5]octan-7-yl)phenyl)but-2-ynamide] | –
5 | 107 nM | 2.16 nM | – | – | C=CC(=O)Nc1cc(-c2cc3c(cn2)cc(-c2c(Cl)c(OC)cc(OC)c2Cl)c2nccn23)c(OC)cc1N1CCN(C(C)=O)CC1 [Example 37, N-(2-(4-acetylpiperazin-1-yl)-5-(4-(2,6-dichloro-3,5-dimethoxyphenyl)imidazo[1,2-a][1,6]naphthyridin-8-yl)-4-methoxyphenyl)acrylamide] | –
6 | 113 nM | 5.03 nM | – | – | C=CC(=O)Nc1cc(-c2cc3c(cn2)cc(-c2c(Cl)c(OC)cc(OC)c2Cl)c2nccn23)c(OC)cc1N1CC2CCC(C1)O2 [Example 44, N-(2-(8-oxa-3-azabicyclo[3 .2.1]octan-3-yl)-5-(4-(2,6-dichloro-3,5-dimethoxyphenyl)imidazo[1,2-a][1,6]naphthyridin-8-yl)-4-methoxyphenyl)acrylamide] | –
7 | – | – | 0.9 nM | 95.2 nM | C=CC(=O)Nc1cc(-c2cc3c(cn2)cc(-c2c(Cl)c(OC)cc(OC)c2Cl)c2nccn23)c(OC)cc1N1CCN(C#N)CC1 [Example 60, N-(2-(4-cyanopiperazin-1-yl)-5-(4-(2,6-dichloro-3,5-dimethoxyphenyl)imidazo[1,2-a][1,6]naphthyridin-8-yl)-4-methoxyphenyl)acrylamide] | –
8 | – | – | 0.3 nM | 69.7 nM | C=CC(=O)Nc1cc(-c2cc3c(cn2)cc(-c2c(Cl)c(OC)cc(OC)c2Cl)c2nccn23)c(OC)cc1N1CCC(N2CCN(C)CC2)CC1 [Example 64, N-(5-(4-(2,6-dichloro-3,5-dimethoxyphenyl)imidazo[1,2-a][1,6]naphthyridin-8-yl)-4-methoxy-2-(4-(4-methylpiperazin-1-yl)piperidin-1-yl)phenyl)acrylamide] | –
9 | – | – | 0.9 nM | 22.3 nM | C=CC(=O)Nc1cc(-c2cc3c(cn2)cc(-c2c(Cl)c(OC)cc(OC)c2Cl)c2nccn23)c(OC)cc1N1CCN(C2COC2)CC1 [Example 65, N-(5-(4-(2,6-dichloro-3,5-dimethoxyphenyl)imidazo[1,2-a][1,6]naphthyridin-8-yl)-4-methoxy-2-(4-(oxetan-3-yl)piperazin-1-yl)phenyl)acrylamide] | –
10 | – | – | 0.4 nM | 81.3 nM | C=CC(=O)Nc1cc(-c2cc3c(cn2)cc(-c2c(Cl)c(OC)cc(OC)c2Cl)c2nccn23)c(OC)cc1N1CCC(N(C)C)CC1 [Example 67] | –

Row | SMILES | IC50 [1, 2] | IC50 (FGFR-4 kinase; Table 1) | IC50 (FGFR-4 kinase; Table 2) | IC50 [1, 3] | IC50 ([1]; Table 2, 3 days incubation)
11 | C=CC(=O)Nc1cc(-c2cc3c(cn2)cc(-c2c(Cl)c(OC)cc(OC)c2Cl)c2nccn23)c(OC)cc1N1CCOCC1 [Example 54, N-(5-(4-(2,6-dichloro-3,5-dimethoxyphenyl)imidazo[1,2-a][1,6]naphthyridin-8-yl)-4-methoxy-2-morpholinophenyl)acrylamide] | – | – | 0.7 nM | – | 21.5 nM
